According to paper PMC11396368, “Free Radical Production Induced by Nitroimidazole Compounds Lead to Cell Death in Leishmania infantum Amastigotes” (Molecules, 2024):
“And” between values parts separate entries of the source, which are not always exact repeats. Equal values may be shown once. Read-outs that look alike come from different tables or passages of the source.

Legend:
[1] = system: L. infantum-iRFP axenic amastigotes; experiment: ROS production by axenic amastigotes (DCFH-DA, flow cytometry); type: cell-based, Leishmania infantum; settings: 3 h treatment, 0.04 μM fexinidazole, 0.28 μM pretomanid (EC50)
L. infantum TryR = L. infantum TryR (Leishmania infantum, UniProt A4HSF7); experiment: Trypanothione reductase enzymatic assay in parasite protein extracts; type: biochemical; settings: up to 100 μM (thioridazine at 100 μM); T[S]2 0.075 mM, NADPH 0.20 mM
L. infantum TryR, sequence (A4HSF7 entry or part of it): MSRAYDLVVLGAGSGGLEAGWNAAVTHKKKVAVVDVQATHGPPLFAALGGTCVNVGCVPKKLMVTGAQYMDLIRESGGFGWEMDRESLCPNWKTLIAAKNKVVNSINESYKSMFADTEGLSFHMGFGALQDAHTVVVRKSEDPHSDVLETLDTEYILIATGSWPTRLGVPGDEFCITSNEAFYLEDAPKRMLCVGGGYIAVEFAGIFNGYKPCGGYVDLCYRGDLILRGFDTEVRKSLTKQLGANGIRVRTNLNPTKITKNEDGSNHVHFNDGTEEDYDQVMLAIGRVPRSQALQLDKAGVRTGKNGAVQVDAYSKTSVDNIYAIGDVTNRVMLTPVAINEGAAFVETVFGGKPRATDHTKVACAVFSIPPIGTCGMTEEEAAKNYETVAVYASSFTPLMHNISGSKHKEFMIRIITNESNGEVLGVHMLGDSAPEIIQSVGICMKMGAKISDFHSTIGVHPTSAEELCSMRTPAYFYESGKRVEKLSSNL

[2] = Cytotoxicity in HepG2 cells (alamarBlue); settings: human
[3] = Cytotoxicity in RAW 264.7 cells (alamarBlue); settings: mouse
[4] = system: L. infantum-iRFP axenic amastigotes; experiment: Viability of L. infantum-iRFP axenic amastigotes (infrared fluorescence, 384-well); type: cell-based, Leishmania infantum; settings: for EC50: Leishmania infantum, 72 h incubation, mean ± SD; for concentrations producing a decrease in fluorescence emission: axenic amastigotes, from 24 h until 72 h
[5] = system: intramacrophage L. infantum-iRFP amastigotes; experiment: Viability of L. infantum-iRFP intramacrophage amastigotes in infected murine splenocytes (infrared fluorescence, 384-well); type: cell-based, Leishmania infantum; settings: for EC50: Leishmania infantum, Splenocyte, 72 h incubation, mean ± SD
[6] = system: intracellular amastigotes of L donovani; settings: cited from earlier work
[7] = CC50 HepG2 cells / EC50 axenic amastigotes
[8] = CC50 RAW 264.7 cells / EC50 axenic amastigotes
[9] = CC50 HepG2 cells / EC50 intramacrophage amastigotes
[10] = CC50 RAW 264.7 cells / EC50 intramacrophage amastigotes

## OO [H2O2]
[1]; 0.01% (v/v) H2O2
  percentage of the stressed population (+ROS): 72.2%
  unstressed population (−ROS): 27.7%

## CSc1ccc2c(c1)N(CCC1CCCCN1C)c1ccccc1S2 (stereo not drawn) [thioridazine]
L. infantum TryR
  inhibitory effect on L. infantum TryR: completely inhibited the enzyme

## C[C@@H]1[C@H](O)[C@@H](C)/C=C/C=C/C=C/C=C/C=C/C=C/C=C/[C@H](O[C@@H]2O[C@H](C)[C@@H](O)[C@H](N)[C@@H]2O)C[C@@H]2O[C@](O)(C[C@@H](O)C[C@@H](O)[C@H](O)CC[C@@H](O)C[C@@H](O)CC(=O)O[C@H]1C)C[C@H](O)[C@H]2C(=O)O [Amp B]
[2]; HepG2 cells
  CC50 at 72 h: 69.8 ± 13.7 µM
[3]; RAW 264.7 macrophage cells
  CC50 at 72 h: 6.7 ± 0.67 µM
[4]
  SI1 (Selectivity Index): 258.33
  SI2 (Selectivity Index): 24.82
  EC50: 0.27 ± 0.02 µM
[5]
  SI1 (Selectivity Index): 217.97
  SI2 (Selectivity Index): 20.94
  EC50: 0.32 ± 0.02 µM

## CSc1ccc(OCc2ncc([N+](=O)[O-])n2C)cc1 [Fexinidazole, 1-methyl-2-((p-(methylthio)-phenoxy)methyl)-5-nitroimidazole]
[2]; HepG2 cells
  CC50 at 72 h: > 200 µM
[3]; RAW 264.7 macrophage cells
  CC50 at 72 h: > 200 µM
[1]; 0.01% (v/v) H2O2
  percentage of the stressed population (+ROS): 58.4 ± 1.5% and 58.4%
  unstressed population (−ROS): 41.6%
[4]; [7]
  SI1 (Selectivity Index): >5000.00
[4]; [8]
  SI2 (Selectivity Index): >5000.00
[4]
  EC50: 0.04 µM
  concentrations producing a decrease in fluorescence emission: above 0.125 μM
[6]
  potency against intracellular amastigotes: little activity
[5]; [9]
  SI1 (Selectivity Index): >151.52
[5]; [10]
  SI2 (Selectivity Index): >151.52
[5]
  EC50: 1.32 ± 0.06 µM
L. infantum TryR
  inhibitory effect on L. infantum TryR: neither fexinidazole nor pretomanid had any inhibitory effect

## Cn1c([N+](=O)[O-])cnc1COc1ccc(S(C)(=O)=O)cc1 [sulfone]
[6]
  potency against intracellular amastigotes: potency similar to miltefosine

## O=[N+]([O-])c1cn2c(n1)OC[C@@H](OCc1ccc(OC(F)(F)F)cc1)C2 [Pretomanid]
[2]
  CC50 at 72 h: > 200 µM
[3]
  CC50 at 72 h: > 200 µM
[1]; 0.01% (v/v) H2O2
  percentage of the stressed population (+ROS): 39.8%
  unstressed population (−ROS): 59.9%
[1]; 0.01% (v/v) H2O2, listed as pretomanid
  percentage of the stressed population (+ROS): 39.8 ± 1.2%
[4]; [7]
  SI1 (Selectivity Index): >714.29
[4]; [8]
  SI2 (Selectivity Index): >714.29
[4]
  EC50: 0.28 ± 0.02 µM
  concentrations producing a decrease in fluorescence emission: > 0.5 µM
[5]; [9]
  SI1 (Selectivity Index): >303.03
[5]; [10]
  SI2 (Selectivity Index): >303.03
[5]
  EC50: 0.66 ± 0.08 µM
L. infantum TryR
  inhibitory effect on L. infantum TryR: neither fexinidazole nor pretomanid had any inhibitory effect

## Cn1c([N+](=O)[O-])cnc1COc1ccc([S+](C)[O-])cc1 (stereo not drawn) [sulfoxide]
[6]
  potency against intracellular amastigotes: potency similar to miltefosine
